Consider eight molecules from ChEMBL document CHEMBL3132769, “Fragment growing to retain or alter the selectivity of anchored kinase hinge-binding fragments” (Medchemcomm, 2014).

In assay [1] the target is Serine/threonine-protein kinase Chk2 (Homo sapiens) (UniProt O96017). The assay is described as follows: Inhibition of human full length CHK2 expressed in baculovirus assessed as substrate phosphorylation using fluorescence-labelled peptides as substrate at 0.2 uM after 90 mins by microfluidic peptide phosphorylation assay.
Assay [2] concerns the target Rho-associated protein kinase 2 (Homo sapiens) (UniProt O75116). As to conditions: 0.1 uM.
Description: Inhibition of human ROCK2 catalytic domain expressed in baculovirus assessed as substrate phosphorylation using fluorescence-labelled peptides as substrate at 0.1 uM after 90 mins by microfluidic peptide phosphorylation assay
Assay [3] relates to T1, Receptor-type tyrosine-protein kinase FLT3 (Homo sapiens), P36888 [D835Y].
T1 sequence (whole entry): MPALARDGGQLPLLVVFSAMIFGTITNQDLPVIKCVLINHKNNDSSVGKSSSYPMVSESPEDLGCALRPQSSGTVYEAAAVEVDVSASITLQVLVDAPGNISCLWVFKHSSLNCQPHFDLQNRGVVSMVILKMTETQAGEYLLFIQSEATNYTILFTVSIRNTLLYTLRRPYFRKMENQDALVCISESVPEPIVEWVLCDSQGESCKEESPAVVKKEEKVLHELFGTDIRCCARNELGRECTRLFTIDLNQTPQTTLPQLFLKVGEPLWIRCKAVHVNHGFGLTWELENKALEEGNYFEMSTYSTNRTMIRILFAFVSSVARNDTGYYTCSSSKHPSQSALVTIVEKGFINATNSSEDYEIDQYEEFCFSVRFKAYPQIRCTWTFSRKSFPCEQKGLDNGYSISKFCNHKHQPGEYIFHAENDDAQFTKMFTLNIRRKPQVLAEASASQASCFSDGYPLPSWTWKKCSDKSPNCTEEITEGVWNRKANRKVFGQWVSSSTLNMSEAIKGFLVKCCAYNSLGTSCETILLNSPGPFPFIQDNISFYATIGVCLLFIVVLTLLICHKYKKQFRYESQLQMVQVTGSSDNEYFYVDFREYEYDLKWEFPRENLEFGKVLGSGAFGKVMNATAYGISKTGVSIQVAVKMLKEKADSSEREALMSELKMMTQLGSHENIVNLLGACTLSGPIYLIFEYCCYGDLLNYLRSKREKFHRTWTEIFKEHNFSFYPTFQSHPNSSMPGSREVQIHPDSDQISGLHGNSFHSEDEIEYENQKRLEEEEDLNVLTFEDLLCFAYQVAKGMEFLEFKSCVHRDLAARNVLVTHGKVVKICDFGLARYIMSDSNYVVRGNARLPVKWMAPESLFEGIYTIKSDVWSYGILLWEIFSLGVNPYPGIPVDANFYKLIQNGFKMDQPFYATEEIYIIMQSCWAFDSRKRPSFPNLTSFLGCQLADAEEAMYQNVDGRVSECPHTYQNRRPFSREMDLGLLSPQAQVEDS
The assay is described as follows: Inhibition of human FLT3 D835Y mutant catalytic domain expressed in baculovirus assessed as substrate phosphorylation using fluorescence-labelled peptides as substrate at 0.1 uM after 90 mins by microfluidic peptide phosphorylation assay.

The target of assay [4] is T2, Aurora kinase A (Homo sapiens) (UniProt O14965).
T2 sequence (whole entry): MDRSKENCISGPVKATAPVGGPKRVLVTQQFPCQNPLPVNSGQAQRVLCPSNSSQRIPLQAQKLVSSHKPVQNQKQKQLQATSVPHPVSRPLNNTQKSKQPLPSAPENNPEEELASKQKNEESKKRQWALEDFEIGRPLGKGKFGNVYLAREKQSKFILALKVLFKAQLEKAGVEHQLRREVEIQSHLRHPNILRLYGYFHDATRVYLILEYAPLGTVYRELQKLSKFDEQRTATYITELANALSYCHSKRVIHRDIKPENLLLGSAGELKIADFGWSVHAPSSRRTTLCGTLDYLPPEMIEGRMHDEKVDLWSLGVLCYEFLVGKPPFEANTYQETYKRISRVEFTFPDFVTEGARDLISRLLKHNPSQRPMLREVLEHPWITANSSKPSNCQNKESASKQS
The assay is described as follows: Inhibition of human full length AurA expressed in baculovirus assessed as substrate phosphorylation using fluorescence-labelled peptides as substrate at 420 uM after 90 mins by microfluidic peptide phosphorylation assay.

Assay [5] addresses Ribosomal protein S6 kinase alpha-4 (Homo sapiens) (UniProt O75676). Put plainly: Inhibition of human full length MSK2 expressed in baculovirus assessed as substrate phosphorylation using fluorescence-labelled peptides as substrate at 9 uM after 90 mins by microfluidic peptide phosphorylation assay.
The target in assay [6] is RAC-alpha serine/threonine-protein kinase (Homo sapiens) (UniProt P31749). Put plainly: Inhibition of human AKT1 catalytic domain expressed in baculovirus assessed as substrate phosphorylation using fluorescence-labelled peptides as substrate at 8 uM after 90 mins by microfluidic peptide phosphorylation assay.
Assay [7] is filed under the species Homo sapiens. Put plainly: Inhibition of human P70S6K catalytic domain expressed in baculovirus assessed as substrate phosphorylation using fluorescence-labelled peptides as substrate at 8 uM after 90 mins by microfluidic peptide phosphorylation assay.
In assay [8] the target is Platelet-derived growth factor receptor alpha (Homo sapiens) (UniProt P16234). Put plainly: Inhibition of human PDGFR alpha catalytic domain expressed in baculovirus assessed as substrate phosphorylation using fluorescence-labelled peptides as substrate at […] after 90 mins by microfluidic peptide phosphorylation assay.
Assay [9] deals with Serine/threonine-protein kinase PAK 2 (Homo sapiens) (UniProt Q13177). Put plainly: Inhibition of human truncated PAK2 expressed in Escherichia coli cell assessed as substrate phosphorylation using fluorescence-labelled peptides as substrate at […] after 90 mins by microfluidic peptide phosphorylation assay.
For assay [10], the target named is T3, MAP kinase-activated protein kinase 5 (Homo sapiens) (UniProt Q8IW41).
T3 sequence (whole entry): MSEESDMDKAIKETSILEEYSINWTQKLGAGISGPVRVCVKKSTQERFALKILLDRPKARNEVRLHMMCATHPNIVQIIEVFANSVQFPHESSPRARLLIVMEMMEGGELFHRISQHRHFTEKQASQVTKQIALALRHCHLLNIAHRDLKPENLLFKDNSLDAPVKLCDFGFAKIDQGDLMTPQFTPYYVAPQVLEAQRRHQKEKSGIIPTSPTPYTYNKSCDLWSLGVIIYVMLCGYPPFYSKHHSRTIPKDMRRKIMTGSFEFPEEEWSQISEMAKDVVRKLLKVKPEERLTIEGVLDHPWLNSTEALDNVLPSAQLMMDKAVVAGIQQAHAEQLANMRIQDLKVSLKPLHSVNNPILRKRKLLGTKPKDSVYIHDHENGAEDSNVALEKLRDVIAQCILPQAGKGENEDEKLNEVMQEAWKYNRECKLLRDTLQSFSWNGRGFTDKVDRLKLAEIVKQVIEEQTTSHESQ
Put plainly: Inhibition of human full length PRAK expressed in baculovirus assessed as substrate phosphorylation using fluorescence-labelled peptides as substrate at 0.06 uM after 90 mins by microfluidic peptide phosphorylation assay.

The target of assay [11] is Casein kinase I isoform alpha (Homo sapiens) (UniProt P48729). Put plainly: Inhibition of human full length CSNK1A1 expressed in baculovirus assessed as substrate phosphorylation using fluorescence-labelled peptides as substrate at 70 uM after 90 mins by microfluidic peptide phosphorylation assay.
For assay [12], the target named is MAP kinase-activated protein kinase 2 (Homo sapiens) (UniProt P49137). Put plainly: Inhibition of human full length MAPKAPK2 expressed in baculovirus assessed as substrate phosphorylation using fluorescence-labelled peptides as substrate at 70 uM after 90 mins by microfluidic peptide phosphorylation assay.
Chain of MAP kinase-activated protein kinase 2 (Homo sapiens) (P49137 whole entry, looked up): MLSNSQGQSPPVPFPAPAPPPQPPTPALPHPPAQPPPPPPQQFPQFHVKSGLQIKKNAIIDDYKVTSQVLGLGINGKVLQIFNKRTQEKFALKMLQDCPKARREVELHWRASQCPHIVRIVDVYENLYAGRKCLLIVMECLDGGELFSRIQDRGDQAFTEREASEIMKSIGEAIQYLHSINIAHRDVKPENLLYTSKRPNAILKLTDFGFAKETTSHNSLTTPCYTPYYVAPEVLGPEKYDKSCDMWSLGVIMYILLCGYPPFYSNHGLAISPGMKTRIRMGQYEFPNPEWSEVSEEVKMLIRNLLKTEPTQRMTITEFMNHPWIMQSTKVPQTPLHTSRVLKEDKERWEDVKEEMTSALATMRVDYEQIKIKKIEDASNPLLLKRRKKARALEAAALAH

Chain of Serine/threonine-protein kinase PAK 2 (Homo sapiens) (Q13177 whole entry, the tested form may be a part): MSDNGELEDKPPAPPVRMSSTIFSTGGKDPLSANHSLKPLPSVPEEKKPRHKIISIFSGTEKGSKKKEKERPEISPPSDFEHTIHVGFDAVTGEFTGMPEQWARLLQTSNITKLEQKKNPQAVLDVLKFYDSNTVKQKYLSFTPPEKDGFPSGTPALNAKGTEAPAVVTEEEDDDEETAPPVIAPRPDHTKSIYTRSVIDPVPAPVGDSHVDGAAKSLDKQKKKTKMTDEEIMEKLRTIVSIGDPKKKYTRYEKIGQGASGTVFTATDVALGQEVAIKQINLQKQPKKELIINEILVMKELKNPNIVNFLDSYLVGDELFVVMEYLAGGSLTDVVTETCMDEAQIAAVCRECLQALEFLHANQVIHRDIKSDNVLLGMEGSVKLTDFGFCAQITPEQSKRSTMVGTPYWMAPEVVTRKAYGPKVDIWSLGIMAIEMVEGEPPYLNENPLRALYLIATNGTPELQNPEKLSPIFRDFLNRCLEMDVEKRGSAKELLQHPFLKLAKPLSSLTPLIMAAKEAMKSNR
Chain of Serine/threonine-protein kinase Chk2 (Homo sapiens) (O96017 whole entry): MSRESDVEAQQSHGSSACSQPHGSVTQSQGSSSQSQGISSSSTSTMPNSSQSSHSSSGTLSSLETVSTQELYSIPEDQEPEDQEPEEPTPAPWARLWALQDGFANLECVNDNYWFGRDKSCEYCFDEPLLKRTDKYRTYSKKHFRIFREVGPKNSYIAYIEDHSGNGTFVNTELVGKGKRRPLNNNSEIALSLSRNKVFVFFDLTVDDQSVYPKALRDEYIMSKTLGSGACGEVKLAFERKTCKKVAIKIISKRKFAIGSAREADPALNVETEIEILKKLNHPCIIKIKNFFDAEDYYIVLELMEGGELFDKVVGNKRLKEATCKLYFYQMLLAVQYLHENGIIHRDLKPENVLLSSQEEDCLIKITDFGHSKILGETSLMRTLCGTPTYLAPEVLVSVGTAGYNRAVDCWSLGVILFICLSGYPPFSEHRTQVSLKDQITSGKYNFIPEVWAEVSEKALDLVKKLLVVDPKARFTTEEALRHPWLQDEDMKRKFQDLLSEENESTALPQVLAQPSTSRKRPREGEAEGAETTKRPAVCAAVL
Chain of Ribosomal protein S6 kinase alpha-4 (Homo sapiens) (O75676 whole entry, looked up, the tested form may be a part): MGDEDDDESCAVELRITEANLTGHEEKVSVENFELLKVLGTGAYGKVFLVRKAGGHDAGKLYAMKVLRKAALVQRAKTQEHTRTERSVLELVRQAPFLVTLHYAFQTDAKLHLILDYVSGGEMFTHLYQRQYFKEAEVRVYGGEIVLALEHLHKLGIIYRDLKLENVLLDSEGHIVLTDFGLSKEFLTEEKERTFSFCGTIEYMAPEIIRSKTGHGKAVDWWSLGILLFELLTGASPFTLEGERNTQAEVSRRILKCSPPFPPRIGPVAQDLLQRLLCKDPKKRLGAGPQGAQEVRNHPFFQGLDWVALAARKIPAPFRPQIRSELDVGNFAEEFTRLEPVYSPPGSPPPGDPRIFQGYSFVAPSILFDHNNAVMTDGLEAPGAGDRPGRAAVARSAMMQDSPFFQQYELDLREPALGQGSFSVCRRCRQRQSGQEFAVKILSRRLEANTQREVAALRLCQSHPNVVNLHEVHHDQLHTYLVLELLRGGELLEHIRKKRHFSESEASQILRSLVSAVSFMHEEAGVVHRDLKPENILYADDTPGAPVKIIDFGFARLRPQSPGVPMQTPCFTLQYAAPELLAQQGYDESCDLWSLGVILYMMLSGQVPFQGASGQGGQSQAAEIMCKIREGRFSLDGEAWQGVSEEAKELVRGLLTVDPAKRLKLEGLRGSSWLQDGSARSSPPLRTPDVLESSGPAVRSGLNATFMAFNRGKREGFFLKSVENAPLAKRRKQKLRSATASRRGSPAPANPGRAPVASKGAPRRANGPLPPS
Chain of Rho-associated protein kinase 2 (Homo sapiens) (O75116 whole entry, looked up): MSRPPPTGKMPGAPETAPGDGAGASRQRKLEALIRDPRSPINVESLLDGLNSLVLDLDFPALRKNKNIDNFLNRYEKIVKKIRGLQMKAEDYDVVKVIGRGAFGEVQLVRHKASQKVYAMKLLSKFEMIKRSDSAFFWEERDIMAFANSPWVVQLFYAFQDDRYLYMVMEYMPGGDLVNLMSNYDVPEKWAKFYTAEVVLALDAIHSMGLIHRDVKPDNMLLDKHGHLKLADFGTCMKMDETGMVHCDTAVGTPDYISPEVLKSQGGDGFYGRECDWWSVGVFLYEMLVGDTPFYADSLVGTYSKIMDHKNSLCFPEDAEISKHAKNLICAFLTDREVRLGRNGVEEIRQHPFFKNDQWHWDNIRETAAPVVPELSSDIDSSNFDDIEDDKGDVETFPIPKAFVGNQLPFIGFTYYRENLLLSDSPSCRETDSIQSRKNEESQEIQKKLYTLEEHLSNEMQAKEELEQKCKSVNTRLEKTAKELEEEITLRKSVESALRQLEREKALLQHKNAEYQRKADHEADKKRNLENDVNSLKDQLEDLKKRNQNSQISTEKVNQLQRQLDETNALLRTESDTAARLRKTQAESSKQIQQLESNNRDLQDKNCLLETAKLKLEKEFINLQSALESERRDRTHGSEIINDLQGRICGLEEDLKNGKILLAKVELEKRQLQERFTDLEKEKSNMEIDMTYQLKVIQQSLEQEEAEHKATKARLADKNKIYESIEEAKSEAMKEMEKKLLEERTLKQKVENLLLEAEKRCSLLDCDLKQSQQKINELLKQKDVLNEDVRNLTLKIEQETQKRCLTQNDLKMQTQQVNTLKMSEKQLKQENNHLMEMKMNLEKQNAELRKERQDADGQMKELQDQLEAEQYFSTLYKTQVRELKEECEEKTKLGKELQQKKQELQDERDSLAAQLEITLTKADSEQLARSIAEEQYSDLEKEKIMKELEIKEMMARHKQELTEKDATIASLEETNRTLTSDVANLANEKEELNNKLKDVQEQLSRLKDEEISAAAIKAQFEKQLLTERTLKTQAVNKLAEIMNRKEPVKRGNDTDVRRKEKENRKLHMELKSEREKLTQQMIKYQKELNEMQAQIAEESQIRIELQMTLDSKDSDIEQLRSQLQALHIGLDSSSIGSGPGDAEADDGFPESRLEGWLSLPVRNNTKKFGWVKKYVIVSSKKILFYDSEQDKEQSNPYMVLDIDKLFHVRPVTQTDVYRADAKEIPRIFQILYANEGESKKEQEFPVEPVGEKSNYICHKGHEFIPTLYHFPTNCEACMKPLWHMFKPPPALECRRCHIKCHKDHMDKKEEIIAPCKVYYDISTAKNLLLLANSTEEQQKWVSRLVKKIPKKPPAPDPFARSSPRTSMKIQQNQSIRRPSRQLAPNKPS
Chain of Platelet-derived growth factor receptor alpha (Homo sapiens) (P16234 whole entry, the tested form may be a part): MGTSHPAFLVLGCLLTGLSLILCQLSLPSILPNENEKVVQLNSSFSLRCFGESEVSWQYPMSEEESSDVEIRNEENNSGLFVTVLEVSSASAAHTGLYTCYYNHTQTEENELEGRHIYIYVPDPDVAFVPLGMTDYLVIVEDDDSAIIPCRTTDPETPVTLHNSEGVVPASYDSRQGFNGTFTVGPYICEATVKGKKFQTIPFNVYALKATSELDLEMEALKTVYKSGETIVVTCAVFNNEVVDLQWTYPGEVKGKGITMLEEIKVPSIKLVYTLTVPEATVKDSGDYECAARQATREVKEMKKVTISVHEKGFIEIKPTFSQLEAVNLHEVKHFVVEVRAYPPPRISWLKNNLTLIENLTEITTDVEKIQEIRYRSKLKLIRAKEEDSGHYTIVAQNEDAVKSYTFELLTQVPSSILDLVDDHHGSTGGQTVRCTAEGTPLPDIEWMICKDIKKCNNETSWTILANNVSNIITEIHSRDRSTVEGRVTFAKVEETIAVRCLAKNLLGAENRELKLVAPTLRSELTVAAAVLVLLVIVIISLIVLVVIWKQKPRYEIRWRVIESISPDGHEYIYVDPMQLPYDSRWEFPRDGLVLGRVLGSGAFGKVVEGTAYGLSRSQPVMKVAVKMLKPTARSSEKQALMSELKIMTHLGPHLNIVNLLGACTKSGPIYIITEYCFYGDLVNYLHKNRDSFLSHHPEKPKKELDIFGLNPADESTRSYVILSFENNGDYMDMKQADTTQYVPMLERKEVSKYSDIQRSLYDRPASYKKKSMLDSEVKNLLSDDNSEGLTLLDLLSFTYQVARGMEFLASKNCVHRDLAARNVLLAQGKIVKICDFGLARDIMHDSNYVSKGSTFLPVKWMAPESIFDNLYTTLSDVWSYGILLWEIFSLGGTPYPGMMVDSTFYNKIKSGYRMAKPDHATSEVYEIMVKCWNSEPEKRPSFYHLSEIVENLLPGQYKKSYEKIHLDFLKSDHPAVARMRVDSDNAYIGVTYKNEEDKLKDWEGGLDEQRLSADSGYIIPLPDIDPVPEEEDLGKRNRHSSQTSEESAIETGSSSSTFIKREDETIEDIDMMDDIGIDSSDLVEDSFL
Chain of Casein kinase I isoform alpha (Homo sapiens) (P48729 2-337 limits assumed): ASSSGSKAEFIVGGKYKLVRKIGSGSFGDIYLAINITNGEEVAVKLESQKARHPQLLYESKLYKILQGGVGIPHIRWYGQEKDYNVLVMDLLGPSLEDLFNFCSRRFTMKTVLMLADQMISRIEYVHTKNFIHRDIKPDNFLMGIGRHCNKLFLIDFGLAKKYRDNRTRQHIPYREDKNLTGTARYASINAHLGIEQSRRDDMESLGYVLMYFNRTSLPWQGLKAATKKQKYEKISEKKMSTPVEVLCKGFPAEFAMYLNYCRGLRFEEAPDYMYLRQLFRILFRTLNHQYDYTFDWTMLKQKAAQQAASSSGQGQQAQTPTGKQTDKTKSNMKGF

Usually inhibition stands for the relative decrease from the control value, in per cent. As to `Clc1ccc(C2(c3ccc(-c4ncnc5[nH]cnc45)cc3)CCNCC2)cc1`, the inhibition in [1] was 59%.

As for `C[C@H](CN(C)C)Oc1nc(Nc2cc3cccc(Cl)c3cn2)cnc1C#N`, the inhibition in [2] turned out to be 0%; in assay [3], 27%.

Regarding `c1nc(N2CCOCC2)c2nc[nH]c2n1`, the inhibition in assay [4] amounted to 96%.

With `NCC1CN(c2ncnc3[nH]c4cnccc4c23)CCO1` (configuration not stated), the inhibition in assay [5] was 52%.

Consider `NCC1CCN(c2ncnc3[nH]ccc23)CC1`, for which the inhibition in [6] came out at 96%; in assay [7], 68%.

Take `COC(=O)c1cnc(Nc2cnc(C#N)cn2)cc1NCC1CCNCC1`: the inhibition in assay [8] was determined as 9.5%; in assay [9] it was 1.5%.

For the molecule `NC1(Cc2ccc(Cl)cc2)CCN(c2ncnc3[nH]ccc23)CC1`, the inhibition in [10] was 0%.

As for `CNCc1ccc(-c2ncnc3[nH]cnc23)cc1`, the values for the inhibition in [11] and in assay [12] were 45.5% and 77%, respectively.
